Experimental findings from US9273043B2, “TRPV1 antagonists including dihydroxy substituent and uses thereof” (Purdue Pharma L.P., priority 2011, dated 2016) are described below.

The IC50 is the concentration that gives 50% inhibition.

What all share (type): cell-based
Assay [1] addresses T1, human TRPV1 (Homo sapiens (Human), UniProt Q8NER1). In words: Human TRPV1 heat-based assay, hTRPV1/CHO cells (hHeat-CHO). Conditions: temperature ramp 25 to 45 °C, mean ± SEM. Here is the method: Human TRPV1 Heat-based Assay:
CHO cells stably expressing human TRPV1 (hTRPV1) were used. Functional assessment of heat-induced activation of hTRPV1 was carried out in a cell-based Ca^2+ flux assay using ABI7500 Fast Real-Time PCR System as described in Reubish et al., “Functional assessment of temperature-gated ion-channel activity using a real-time PCR machine,” www.BioTechniques.com 47(3):iii-ix (2009), which is hereby incorporated by reference. Briefly, hTRPV1/CHO cells were cultured in growth media in a tissue culture dish at 37° C. in a CO2 incubator. On the day of the assay, culture media were removed and the cells were then detached using 0.05% trypsin at 37° C. with 5% CO2, for 90 s. The detached cells were centrifuged (1000 rpm, 4 min) to remove trypsin-containing supernatant and resuspended in assay buffer (115 mM NaCl, 5.4 mM KCl, 0.8 mM MgCl2.6H2O, 1.8 mM CaCl2.2H2O, 13.8 mM D-glucose, and 20 mM HEPES). Then, the cells were loaded with 5 μM Fluo-4, a Ca^2+ reporter dye, in the presence of 2.5 mM probenecid at 37° C. with 5% CO2, for 45 min. Thereafter, the cells were washed twice with measuring buffer (assay buffer supplemented with 0.1% BSA and 3.2 mM CaCl2) then transferred to a Fast 96-well Reaction Plate (0.1 mL) (Part no. 4346907, MICROAMP, Applied Biosystems, Foster City, Calif.). The cell density was 100,000 cells/24 μL/well. A solution of the compound under test (6 μL/well) was added into each well of the 96-well plate. Thus, the reaction volume per well was 30 μL.
The plates were then placed inside an ABI7500 Fast Real-Time PCR instrument (Applied Biosystems) to read fluorescence at different temperatures using 7500 software, version 2.0.2 (Applied Biosystems). The initial temperature was set at 25° C. for 1 min. followed by a temperature ramp to 45° C. in 100 s to deliver heat to cells. [Ca^2+], response of hTRPV1/CHO cells to heat was determined as: [fluorescence read at 45° C.−fluorescence read at 25° C.].
Compound concentration response curves and IC50 values were analyzed using GraphPad Prism 4 software (GraphPad Software, La Jolla, Calif.).
The IC50 data provided in Table 6 are shown as mean±standard error of the mean; the number of trials conducted for each assay is shown in parentheses except for only a single trial where no number of trials is shown in parentheses.

Assay [2] addresses T1, human TRPV1. As to the kind of experiment: Capsaicin-based assay, Protocol 2, TRPV1/CHO cells (hCAP-CHO), Fluo-4 FLIPR. Conditions: 100 nM capsaicin, mean ± SEM. The essentials: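 CHO cells stably transfected with human TRPV1 cDNA (G418-selected) were loaded with 3 μM Fluo-4 for 1 h, washed, then read on FLIPR with 15 s baseline before additions. Compound tested at final 100 μM to 1.5625 μM against capsaicin stimulation; calcium fluorescence time course curve-fitted.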

The target of assay [3] is T1, human TRPV1. In words: pH-based assay, Protocol 2, TRPV1/CHO cells (hpH-CHO), Fura-2 Ca2+ influx. To be noted: pH 5.0-5.1 (H2SO4), mean ± SEM. Here is the method: For Protocol 2, a Chinese Hamster Ovary cell line (CHO) that has been engineered to constitutively express human recombinant TRPV1 was used (TRPV1/CHO cells). The TRPV1/CHO cell line was generated as described below.
TRPV1/CHO cells were seeded in the 96-well clear-bottom black-wall plate (Nunc) at densities of 1-2×10^4 cells/well and grown in 100 μL of culture medium (alpha-MEM supplemented with 10% FBS, 20 mM HEPES, 1 mg/mL geneticin and 1% antibiotic-antimycotic mixed stock solution) for 1-2 days before the experiment.
(1) Culture medium was removed using an 8-channel-pipette (Rainin, USA) from the 96-well plate and the wells were refilled with 100 μL of loading buffer (20 mM HEPES, 115 mM NaCl, 5.4 mM KCl, 0.8 mM MgCl2, 1.8 mM CaCl2, 13.8 mM D-glucose, 2.5 mM probenecid, pH 7.4) containing 5 μM Fura-2 AM (Dojin, Japan).
(2) The 96-well plate was incubated at 37° C. for 45 min.
(3) The loading buffer was removed from each well. The cells were subsequently washed twice with 150 μL of measuring buffer (20 mM HEPES, 115 mM NaCl, 5.4 mM KCl, 0.8 mM MgCl2, 5.0 mM CaCl2, 13.8 mM D-glucose, 0.1% BSA, pH 7.4) (no probenecid). The wells were then refilled with 80 μL of measuring buffer.
(4) After an incubation at 4° C. for 15 min, the 96-well plate was transferred to a model FDSS-3000 plate reader apparatus (Hamamatsu Photonics K.K., Japan).
(5) The Fura-2 fluorescent intensity was monitored at a wavelength of 340 nm and at 380 nm, respectively, at a rate of 0.5 Hz for a total of 240 seconds. After 16 time points (32 sec) of baseline detection, 20 μL of agonist solution was added to each well. The final volume was 100 μL/well.
(6) Fluorescence intensity ratio refers to the fluorescence intensity at 340 nm over the fluorescence intensity at 380 nm at a particular time point. The baseline was set as the average of the fluorescent intensity ratios for the first 16 time points before the addition of agonist solution. The maximum response was the highest fluorescent intensity ratio during the 60 time points following addition of agonist solution.
(7) Maximal signal ratios from each well were calculated as output data using the FDSS-3000 analysis program. Data were analyzed using Excel (Microsoft) and XLfit (idbs) software.
In an “agonist plate,” two different agonist solutions with different H2SO4 concentrations were used for the pH assay (see, e.g., FIG. 3A of U.S. Patent Application Publication No. US 2009/0170868 A1). For the first half of a 96-well plate one agonist solution was used; for the second half the other agonist solution was used. The agonist solutions were obtained by diluting sulfuric acid (1M H2SO4) with measuring buffer. The concentrations for the two agonist solutions were determined as described above in Section 2 of Protocol 2.
The sulfuric acid concentrations between the two agonist solutions differed by 0.5 mM. In the experiment described in Section 2 of Protocol 2, the sulfuric acid concentrations in the agonist solutions were determined to be 16 mM and 16.5 mM, respectively. After 1:4 dilution of the agonist solutions, the final sulfuric acid concentration was 3.2 mM and 3.3 mM, respectively. The resulting pH value for the pH assay was 5.0 to 5.1.
Test compounds were dissolved in DMSO to yield 1 mM stock solutions. The stock solutions were further diluted using DMSO in […] serial dilution steps with 6 points (1000, 250, 62.5, 15.625, 3.9062, and 0.977 μM). The thereby-obtained solutions were further diluted in measuring buffer (1:100) as 10× stock serial dilutions with a DMSO concentration of 1%. 10 μL of a 10× stock was added into each well of an “antagonist plate” (see step 3.3.(4) below). Thus, the final concentrations of antagonists was as follows: 0.977, 3.906, 15.63, 62.5, 250, and 1000 nM containing 0.1% DMSO (see, e.g., FIG. 3B of U.S. Patent Application Publication No. US 2009/0170868 A1).
Steps (1) and (2) of this Assay were the same as steps 2.2.(1) and 2.2.(2), respectively, of Protocol 2. […]

T1 sequence (Q8NER1 whole entry, looked up): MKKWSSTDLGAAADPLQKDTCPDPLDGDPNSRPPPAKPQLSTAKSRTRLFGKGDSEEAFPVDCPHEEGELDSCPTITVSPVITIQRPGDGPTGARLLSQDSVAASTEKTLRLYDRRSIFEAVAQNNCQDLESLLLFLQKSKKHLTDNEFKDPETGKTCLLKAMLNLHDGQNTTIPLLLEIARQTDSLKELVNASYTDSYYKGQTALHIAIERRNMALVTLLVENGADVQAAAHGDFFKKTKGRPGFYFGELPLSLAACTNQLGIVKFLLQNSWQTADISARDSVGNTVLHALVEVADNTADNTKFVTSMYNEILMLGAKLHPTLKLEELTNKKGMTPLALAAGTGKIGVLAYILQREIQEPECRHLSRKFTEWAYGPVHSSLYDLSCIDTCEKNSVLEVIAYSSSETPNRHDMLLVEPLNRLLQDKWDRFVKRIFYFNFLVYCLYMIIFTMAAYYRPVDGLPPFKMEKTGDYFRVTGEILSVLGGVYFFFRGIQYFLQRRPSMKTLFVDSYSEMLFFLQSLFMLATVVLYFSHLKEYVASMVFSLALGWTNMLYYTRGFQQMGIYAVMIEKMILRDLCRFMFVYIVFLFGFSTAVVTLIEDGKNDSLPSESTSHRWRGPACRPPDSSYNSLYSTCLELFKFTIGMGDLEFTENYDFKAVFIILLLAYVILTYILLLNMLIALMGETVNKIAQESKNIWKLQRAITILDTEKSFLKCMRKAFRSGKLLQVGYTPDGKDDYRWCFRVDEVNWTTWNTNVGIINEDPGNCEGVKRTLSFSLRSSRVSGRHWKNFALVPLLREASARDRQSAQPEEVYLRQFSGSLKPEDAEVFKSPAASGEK

On to `C[C@@H]1CN(c2ncc([C@@H](O)CO)cc2F)CCN1C(=O)Nc1nc2ccccc2s1` [A122(e), (R)—N-(benzo[d]thiazol-2-yl)-4-(5-((R)-1,2-dihydroxyethyl)-3-fluoropyridin-2-yl)-2-methylpiperazine-1-carboxamide], for which the results for the concentration for half-maximal inhibition (IC50) on human TRPV1 [1], at human TRPV1 [2] and against human TRPV1 [3] were 0.096 ± 0.0024 µM, 0.0806 ± 0.0075 µM and 0.0058 ± 0.0007 µM, respectively.
On to `C[C@@H]1CN(c2ncc([C@@H](O)CO)cc2F)CCN1C(=O)Nc1nc2ccc(F)cc2s1` [A125(e), (R)-4-(5-((R)-1,2-dihydroxyethyl)-3-fluoropyridin-2-yl)-N-(6-fluorobenzo[d]thiazol-2-yl)-2-methylpiperazine-1-carboxamide], for which the IC50 on human TRPV1 [1] came to 0.0184 ± 0.0008 µM; against human TRPV1 [2], 0.0239 ± 0.0038 µM; on human TRPV1 [3] it was 0.0006 ± 0.0002 µM.
With `C[C@H](O)[C@@H](O)c1cnc(N2CCN(C(=O)Nc3nc4ccc(Cl)cc4s3)CC2)c(F)c1` [C123(r), N-(6-chlorobenzo[d]thiazol-2-yl)-4-(5-((1S,2S)-1,2-dihydroxypropyl)-3-fluoropyridin-2-yl)piperazine-1-carboxamide], the IC50 came to 0.096 ± 0.014 µM at human TRPV1 [1], 0.0269 ± 0.0036 µM against human TRPV1 [2] and 0.0206 ± 0.0026 µM against human TRPV1 [3].
